Legend:
[1] = system: Beet Armyworm (Spodoptera exigua, LAPHEG); assay: Bioassay on Beet Armyworm (BAW), 128-well diet tray assay; type: in vivo; details: Beet Armyworm, 128-well diet tray assay, read-out: BAW rating
In short: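 Second-instar larvae, one to five per well, placed on artificial diet surface-treated with 50 μg/cm^2 compound applied in 90:10 acetone-water and dried. Held 5–7 days at 25° C., 14:10 light-dark. Percent mortality recorded per well and averaged over eight wells.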

[2] = system: Green Peach Aphid (Myzus persicae, MYZUPE); assay: Bioassay on Green Peach Aphid (GPA), foliar spray on infested cabbage seedlings; type: in vivo; details: 72 h, Green Peach Aphid, foliar spray on cabbage seedlings, read-out: GPA rating
In short: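 Cabbage seedlings (2-3 true leaves) infested with 20-50 wingless adult and nymph aphids one day before treatment; sprayed to runoff at 200 ppm in 0.025% Tween 20 water with 20% acetone/methanol, four pots per treatment. Held three days at about 25° C; live aphids counted, % control by Abbott's correction versus solvent check.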

[3] = system: Cabbage Looper (Trichoplusia ni, TRIPNI); assay: Bioassay on Cabbage Looper (CL), 128-well diet tray assay; type: in vivo; details: Trichoplusia ni; Cabbage Looper, 128-well diet tray assay; read-out: CL rating
In short: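 Second-instar larvae, one to five per well, placed on artificial diet treated with 50 μg/cm^2 test molecule in 90:10 acetone-water, dried before infestation. Held 5–7 days at 25° C, 14:10 light-dark; percent mortality averaged over eight wells.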

[4] = system: Yellow Fever Mosquito (Aedes aegypti, AEDSAE); assay: Bioassay on Yellow Fever Mosquito (YFM), 96-well plate larval assay; type: in vivo; details: Yellow Fever Mosquito, 96-well plate larval assay
In short: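 Each well was scored for mortality after 3 days at room temperature under a non-evaporative lid. Test molecules came from DMSO masters (4000 ppm stock) diluted with water/acetone 90:10 and dispensed into six replicate plates, which were then infested with roughly 1-day-old larvae in liver-powder water.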

| SMILES | melting point | other results |
| --- | --- | --- |
| O=C(O)C1C(c2cc(Cl)cc(C(F)(F)F)c2)C1(Cl)Cl (stereo not drawn) | 113 to 115 °C | – |
| Nc1ccc(OC(F)(F)F)c(C(=O)Nc2ccc(F)cc2)c1 | 115 to 117 °C | – |
| Nc1cc(Cl)cc(C(=O)Nc2ccc(F)cc2)c1 | 133 to 136 °C | – |
| O=C(O)C1C(c2cc(Cl)cc(Br)c2)C1(Cl)Cl (stereo not drawn) | 161 to 163 °C | – |
| O=C(O)C1C(c2cc(F)cc(Cl)c2)C1(Cl)Cl (stereo not drawn) | 138 to 140 °C | – |
| O=C(O)C1C(c2ccc(Cl)c(F)c2)C1(Cl)Cl (stereo not drawn) | 140 to 142 °C | – |
| Cc1cc(Cl)cc(C2C(C(=O)O)C2(Cl)Cl)c1 (stereo not drawn) | 124 to 126 °C | – |
| O=C(Nc1ccc(F)cc1)c1cccc([N+](=O)[O-])n1 | 169 to 170 °C | – |
| Cc1ccc(C(=O)Nc2ccc(F)cc2)cc1[N+](=O)[O-] | 136 to 138 °C | – |
| O=C(Nc1ccc(F)cc1)c1cc([N+](=O)[O-])ccc1OC(F)(F)F | 175 to 177 °C | – |
| O=C(Nc1ccc(F)cc1)c1cc(Cl)cc([N+](=O)[O-])c1 | 209 to 210 °C | – |
| Cc1c(Cl)cc(C2C(C(=O)O)C2(Cl)Cl)cc1Cl (stereo not drawn) | 181 to 183 °C | – |
| Cc1cc(C2C(C(=O)O)C2(Cl)Cl)cc(Cl)c1Cl (stereo not drawn) | 157 to 159 °C | – |
| O=C(O)C1C(c2ccc(C(F)(F)C(F)(F)F)cc2)C1(Cl)Cl (stereo not drawn) | 116 to 118 °C | – |
| CCOc1ccc(C2C(C(=O)O)C2(Cl)Cl)cc1 (stereo not drawn) | 129 to 130 °C | – |
| O=C(O)C1C(c2cc(F)c(Br)c(F)c2)C1(Cl)Cl (stereo not drawn) | 178.3 to 188.6 °C | – |
| COc1c(Cl)cc(C2C(C(=O)Nc3ccc(Cl)c(C(=O)O)c3)C2(Cl)Cl)cc1Cl (stereo not drawn) | 227 to 231 °C | – |
| O=C(O)c1cc(NC(=O)C2C(c3cc(Cl)cc(Cl)c3)C2(Cl)Cl)cc(Cl)c1Cl (stereo not drawn) | 231 to 235 °C | – |
| O=C(O)c1cc(NC(=O)C2C(c3cc(Cl)cc(Cl)c3)C2(Cl)Cl)c(Cl)cc1Cl (stereo not drawn) | 263 to 266 °C | – |
| Nc1ccc(Cl)c(C(=O)Nc2ccc(-c3ncco3)cc2)c1 | 227 °C (dec.) | – |
| Nc1ccc(Cl)c(C(=O)Nc2ccc(-n3cccn3)cc2)c1 | 50 to 81 °C | – |
| CCc1ccc(N)cc1C(=O)Nc1ccc(F)cc1 | 129 to 131 °C | – |
| Cc1cc(NC(=O)OC(C)(C)C)ccc1NC(=O)c1cccc(N)c1 | 143 to 161 °C | – |

| SMILES | melting point | other results |
| --- | --- | --- |
| Cc1cc(NC(=O)OC(C)(C)C)ccc1NC(=O)c1cc([N+](=O)[O-])ccc1Cl | 195 to 200 °C | – |
| O=C(Nc1ccc(F)c(C(F)(F)F)c1)c1cc([N+](=O)[O-])ccc1Cl | 192 to 202 °C | – |
| O=C(Nc1ccc(-n2cccn2)cc1)c1cc([N+](=O)[O-])ccc1Cl | 200 to 205 °C | – |
| O=C(Nc1ccc(-c2ncco2)cc1)c1cc([N+](=O)[O-])ccc1Cl | 192 to 194 °C | – |
| COc1ccc(C2C(c3cc(F)c(Br)c(F)c3)C2(Cl)Cl)cc1 (stereo not drawn) | 104 to 109.3 °C | – |
| C=Cc1ccc([N+](=O)[O-])cc1C(=O)Nc1ccc(F)cc1 | 158 to 160 °C | – |
| Cc1ccc([N+](=O)[O-])cc1NC(=O)OC(C)(C)C | 137 to 145 °C | – |
| Cc1cc([N+](=O)[O-])ccc1N(C)C(=O)OC(C)(C)C | 98 to 101 °C | – |
| Cc1ccc([N+](=O)[O-])cc1N(C)C(=O)OC(C)(C)C | 57 to 60 °C | – |
| CC(C)(C)OC(=O)N(C(=O)OC(C)(C)C)c1c(N)cc(F)cc1F | 102 to 107 °C | – |
| CC(C)(C)OC(=O)N(C(=O)OC(C)(C)C)c1ccc(F)cc1N | 104 to 115 °C | – |
| COc1c(Cl)cc(C2C(C(=O)O)C2(Cl)Cl)cc1Cl (stereo not drawn) | 161 to 164 °C | – |
| N#Cc1cc(Cl)cc(C2C(C(=O)O)C2(Cl)Cl)c1 (stereo not drawn) | 173 to 175 °C | – |
| COc1ccc(/C=C/c2ccc(Cl)c(Cl)c2)cc1 | 91 to 94 °C | – |
| O=C(O)C1C(c2cccc(C(F)(F)F)c2)C1(Cl)Cl (stereo not drawn) | 86 to 88 °C | – |
| O=C(O)C1C(c2ccc(OC(F)(F)F)c(Cl)c2)C1(Cl)Cl (stereo not drawn) | 134 to 136 °C | – |
| O=C(O)C1C(c2cc(Cl)c(Cl)cc2Cl)C1(Cl)Cl (stereo not drawn) | 189 to 192 °C | – |
| O=C(O)C1C(c2cc(C(F)(F)F)cc(C(F)(F)F)c2)C1(Cl)Cl (stereo not drawn) | 112 to 114 °C | – |
| O=C(O)C1C(c2cc(Br)cc(Br)c2)C1(Cl)Cl (stereo not drawn) | 157 to 159 °C | – |
| O=C(O)C1C(c2ccc(F)c(Cl)c2)C1(Cl)Cl (stereo not drawn) [C16] | 121 to 123 °C | – |
| O=C(O)C1C(c2ccc(F)c(Cl)c2)C1(Cl)Cl (stereo not drawn) [C420] | 119 to 121 °C | – |
| Nc1c(F)ccc(NC(=O)c2cc(NC(=O)[C@H]3[C@H](c4ccc(Cl)c(Br)c4)C3(Cl)Cl)ccc2Cl)c1F [F579, N-(3-Amino-2,4-difluorophenyl)-5-((1R,3R)-3-(3-bromo-4-chlorophenyl)-2,2-dichlorocyclopropane-1-carboxamido)-2-chlorobenzamide] | – | pest or weed control at 50 µg/cm2 [1]: 50 to 100%; pest or weed control at 200 µg/mL [2]: 80 to 100%; pest or weed control at 50 µg/cm2 [3]: 50 to 100%; YFM rating [4]: A (80-100) |

Reference: patent publication US10219516B2, “Molecules having pesticidal utility, and intermediates, compositions, and processes, related thereto” (priority 2015, dated 2019)
